The values that follow come from patent US20150025234A1, “GANGLIOSIDE COMPOSITIONS” (priority 2013, published 2015).

Entries after “also recorded” stand apart in the source; their conditions may differ.

For data set [1], the system named is human bone marrow-derived cells (HBM). It is filed as cell-based.
In data set [2] the test system is Adult Human Bone Marrow Cells. The data set is described as follows: CLQ treatment of adult human bone marrow cells, CTB-Alexa488 staining (Example 2). It counts as cell-based. The following applies: 50 uM CLQ, 48 h, CTB-Alexa488, FIG. 2; listed as CLQ.
For data set [3], the system named is PC12 (rat adrenal medulla tumor) cells. The settings on record: FEBS Lett. 580:6972-6976 (2006); cited from earlier work.
Data set [4] concerns HT22 (mouse hippocampal) cells. The settings on record: J. Neurochem. 119:839-847 (2011); cited from earlier work.
The test system of data set [5] is Parkinson's disease subjects. The settings on record: cited from earlier work.

On to `CCN(CC)CCCC(C)Nc1ccnc2cc(Cl)ccc12` (stereo not drawn) [Chloroquine, chloroquine], for which the “up-regulation of GM1 expression vs control” value in data set [1] is on record as “approximately 8 fold”. Further, the “accumulation of GM1 vs control” value in data set [2] was “significantly higher accumulation of GM1; also recorded: abundant and intense compared to control conditions”. Moreover, the accumulation entry in data set [3] was “induce accumulation”. In addition, in data set [4], the GM1 levels result is “only moderately increased GM1 levels”.

As to GM1, the “safety of long-term use” value in data set [5] (five-year study, J. Neurol. Sci. 292:45-51 (2010)) is “safe”. For the same molecule, the effect on symptoms entry in data set [5] (short-term treatment, Neurology 50:1630-1636 (1998)) was “significant symptom reduction”.
